# Measured values from US20050038110A1, “Selective androgen receptor modulators and methods of use thereof” (priority 2000, published 2005).
# How the values were obtained:
# [1] = tested on: androgen-responsive tissues (prostate, seminal vesicles and levator ani muscle) of castrated rats; experiment: Androgenic and anabolic activity in castrated rat model, 14 days of administration; conditions: for Levator Ani organ weight / Prostate organ weight / Seminal Vesicles organ weight / prostate and seminal vesicle weights: 14 days; for Levator Ani organ weight / Prostate organ weight / Seminal Vesicles organ weight: mean ± S.D.; for prostate and seminal vesicle weights: % of that observed in intact animals (FIG. 1); for prostate, seminal vesicle and levator ani muscle weights: 14 days (FIG. 3)
# [2] = Pharmacokinetic studies (in vivo clearance); conditions: comparison among N-1 to N-4
# [3] = compared with testosterone propionate (FIG. 3)
compound,measurement,setting,value
C[C@](O)(COc1ccc(F)cc1)C(=O)Nc1ccc(C#N)c(C(F)(F)F)c1 [Compound 5],Levator Ani organ weight,[1]; 0.10 mg/day,54.9 ± 5.77 % of intact
same,Prostate organ weight,[1]; 0.10 mg/day,6.4 ± 0.82 % of intact
same,Seminal Vesicles organ weight,[1]; 0.10 mg/day,8.8 ± 1.18 % of intact
same,Levator Ani organ weight,[1]; 0.50 mg/day,55.0 ± 9.23 % of intact
same,Prostate organ weight,[1]; 0.50 mg/day,6.2 ± 0.56 % of intact
same,Seminal Vesicles organ weight,[1]; 0.50 mg/day,9.3 ± 1.57 % of intact
same,Levator Ani organ weight,[1]; 0.75 mg/day,68.9 ± 8.46 % of intact
same,Prostate organ weight,[1]; 0.75 mg/day,7.6 ± 0.74 % of intact
same,Seminal Vesicles organ weight,[1]; 0.75 mg/day,9.8 ± 3.65 % of intact
same,Levator Ani organ weight,[1]; 1.00 mg/day,75.2±9.51 % of intact
same,Prostate organ weight,[1]; 1.00 mg/day,8.7±1.39 % of intact
same,Seminal Vesicles organ weight,[1]; 1.00 mg/day,10.7±0.91 % of intact
C[C@](O)(COc1ccc(C#N)cc1)C(=O)Nc1ccc([N+](=O)[O-])c(C(F)(F)F)c1 [Compound N-2],weight of the levator ani muscle,[1]; 1 mg/day for 14 days,119%±16%
C[C@](O)(COc1ccc(Cl)cc1)C(=O)Nc1ccc([N+](=O)[O-])c(C(F)(F)F)c1 [Compound 2],levator ani muscle weight,"[1]; 0.1-1.0 mg/day, 14 days (FIG. 1), versus intact animals",same level as that of intact animals
same,prostate and seminal vesicle weights,[1]; 0.1-1.0 mg/day,less than 40%
C[C@](O)(COc1ccc(F)cc1)C(=O)Nc1ccc([N+](=O)[O-])c(C(F)(F)F)c1 [Compound 1],prostate and seminal vesicle weights,[1]; 0.1-1.0 mg/day,less than 20%
C[C@](O)(COc1ccc(Br)cc1)C(=O)Nc1ccc([N+](=O)[O-])c(C(F)(F)F)c1 [Compound 3],prostate and seminal vesicle weights,[1]; 0.1-1.0 mg/day,less than 20%
C[C@](O)(COc1ccc([N+](=O)[O-])cc1)C(=O)Nc1ccc(C#N)c(C(F)(F)F)c1 [Compound N-3],weight of the levator ani muscle,[1]; 1 mg/day for 14 days,130%±5%
C[C@](O)(COc1ccc(C#N)cc1)C(=O)Nc1ccc(C#N)c(C(F)(F)F)c1 [Compound N-4],in vivo clearance,[2],lowest in vivo clearance
same,weight of the levator ani muscle,[1]; 1 mg/day for 14 days,142%±17%
same,in vivo pharmacologic activity,"[1]; 1 mg/day for 14 days, comparison among N-1 to N-4",greatest activity
"CCC(=O)O[C@H]1CC[C@H]2[C@@H]3CCC4=CC(=O)CC[C@]4(C)[C@H]3CC[C@]12C [testosterone propionate, reference compound]","prostate, seminal vesicle and levator ani muscle weights",[1]; 0.1-1.0 mg/day,dose-dependent manner
C[C@](O)(COc1ccc([N+](=O)[O-])cc1)C(=O)Nc1ccc([N+](=O)[O-])c(C(F)(F)F)c1 [Compound N-1],weight of the levator ani muscle,[1]; 1 mg/day for 14 days,105%±13%
C[C@](O)(COc1ccc(Cl)cc1)C(=O)Nc1ccc(C#N)c(C(F)(F)F)c1 [Compound 6],"prostate, seminal vesicle and levator ani muscle weights",[1]; 0.1-1.0 mg/day,dose-dependent increases
same,potency and intrinsic activity in increasing the weight of levator ani muscle,[1]; [3],greater potency and intrinsic activity
same,potency and intrinsic activity in increasing the weights of prostate and seminal vesicle,[1]; [3],lower potency and intrinsic activity
same,levator ani muscle weight,"[1]; dose as low as 0.3 mg/day, versus intact animals (FIG. 3)",same level as that of intact animals
C[C@](O)(COc1ccc(I)cc1)C(=O)Nc1ccc([N+](=O)[O-])c(C(F)(F)F)c1 [Compound 4],prostate and seminal vesicle weights,[1]; 0.1-1.0 mg/day,less than 20%
